Data as given in US20260002109A1, “SYSTEMS AND PROCESSES FOR SKIN TISSUE GROWTH AND ANALYSIS” (Outer Biosciences, Inc., priority 2023, published 2026).

Columns and labels:
[1] = system: skin tissue; experiment: Tissue longevity analysis: media conditions judged by histology (epidermis and dermis structure) and culture survival; format: cell-based, human
Source text: Table 5 provides a plurality of media mixtures applied to skin samples to assess the effects of various testing conditions on the skin tissue.

[2] = system: skin tissues; experiment: Skin irritation: collagen deposition by histopathological scoring (Masson's Trichrome); format: cell-based; conditions: 2% for 24 hours; compared to the untreated group
Procedure: (§1) The purpose of this example is to test and replicate dynamic changes in skin across various types of clinically relevant stimuli, including skin irritations, intradermal injection. cosmetic product treatment, and antioxidant defense. Approximations of skin irritation evaluated in this manner include topical chemical treatment 261, burn treatment 262, and UV treatment 263, as illustrated in FIGS. 26A-26C, respectively. Chemical irritation was approximated through application of 2% SDS for 24 hours, burns were approximated through 100° C, contact with a heated metal rod for 45 seconds, and UV irritation was approximated via UVA and UV application for 30 minutes. […] Skin tissues were evaluated and scored using the parameters in Table 9 as provided above. Include protocol, histological parameters, histology staining and scoring results, immune and inflammatory responses, antioxidant defense assessment, etc.
A second selection of samples were cultured and subjected to irritating stimuli, whereby a chemical stimulus group was subjected to 2% SDS for 24 hours, a burn group was subjected to 100° C, contact for 90 seconds, and a UV irritation group was subjected to UV-B for 30 minutes. FIGS. 30A-30D illustrate insert images after staining with Masson's Trichrome for untreated, chemical-treated, burn-treated, and UV-treated skin tissues, respectively. […]

[3] = system: skin tissues; experiment: Skin irritation: lactate dehydrogenase (LDH) release; format: cell-based; conditions: 2% SDS for 24 hours; compared to untreated samples
Procedure: A second selection of samples were cultured and subjected to irritating stimuli, whereby a chemical stimulus group was subjected to 2% SDS for 24 hours, a burn group was subjected to 100° C, contact for 90 seconds, and a UV irritation group was subjected to UV-B for 30 minutes. FIGS. 30A-30D illustrate insert images after staining with Masson's Trichrome for untreated, chemical-treated, burn-treated, and UV-treated skin tissues, respectively. FIG. 31A provides an analysis of collagen deposition using histopathological scoring to determine the effects of damage stimuli on each group. As a result of this analysis, both burn and UV irradiation groups were discovered to have reduced collagen deposition compared to the untreated group. […] FIG. 31B provides an analysis of lactate dehydrogenase (LDH) release, which is widely used as a marker for assessing cell death and toxicity. The analysis indicated a significant increase of LDH release from all treatment conditions compared to untreated samples.

[4] = system: normal skin tissue in an insert; experiment: Skin irritation: histopathological scoring of H&E stained skin tissue; format: cell-based; conditions: 2% for 24 hours, topical; compared to the control group
Procedure: as §1
FIGS. 28A-28D provide H&E stained tissues for a first selection of untreated. chemical-treated, burn-treated, and UV-treated skin tissue samples, respectively. A pathological analysis of the extent of damage was undertaken and is shown in FIGS. 29A-29C to evaluate epidermal damage, eczematous epidermis, and epidermis thickness, respectively, after application of damage stimuli. […] UV irradiation caused epidermal thinning compared to the control group.

[5] = system: barrier function of the skin; experiment: Transepidermal water loss (TEWL) measurement on skin biopsies in inserts; format: cell-based; conditions: biopsy edges sealed with Loctite super glue
Source text: The purpose of this example is to incorporate sealed sensors into an insert. Sealing the biopsy edge using Loctite super glue, as shown in the photograph in FIG. 18A and the histology stain image in FIG. 18B, allowed the measurement of changes in barrier function with sensitivity, as well as preventing leakage of topically-applied substances into the dermis through the edge of the biopsy as well as allowing for the precise measurement of changes in the barrier function of the skin using clinical sensors.
FIGS. 19A-19B illustrate measurements of transepidermal water loss (TEWL) in model skin that were either not sealed or sealed using Loctite super glue, respectively. TEWL measurements were taken using a Courage+Khazaka Multi Probe Adapter MPA 10. […] FIG. 20 show a comparison in TEWL measurements of the effects of a barrier enhancer (Niacinamide) and a barrier disrupter (SDS) on skin sealed with Loctite super glue over a six-day period.

SMILES | beneficial effect on skin samples ([1]; 0.1 mM on the surface of skin samples) | beneficial effect on skin samples ([1]; 0.5 mM and 1 mM in media) | collagen deposition [2] | LDH release [3] | eczematous epidermis [4] | epidermal damage [4] | thickness of epidermis [4] | barrier function by TEWL [5]
[Ca+2].[Cl-].[Cl-] [calcium chloride] | neither testing condition was observed to have any beneficial effect | neither testing condition was observed to have any beneficial effect | – | – | – | – | – | –
CCCCCCCCCCCCOS(=O)(=O)[O-].[Na+] [SDS] | – | – | No significant change in collagen deposition | highest LDH release | moderate eczematous (atopic) epidermis | significant epidermal as evidenced by widespread dyskeratotic cells | pathological epidermal thickening (acanthosis) | reduction in the barrier function
